The record followed here is ChEMBL document CHEMBL4177629, “Synthesis, anticancer, structural, and computational docking studies of 3-benzylchroman-4-one derivatives” (Bioorg Med Chem Lett, 2017).

For orientation: IC50 means the point on the concentration scale where inhibition reaches its midpoint.

One experiment concerns Vero. As to the kind of experiment: Cytotoxicity against African green monkey Vero cells assessed as reduction in cell viability after 24 hrs by MTT assay. In kind it is cell-based. The following applies: Chlorocebus sabaeus. (Tetrazolium assays rely on reduction of a dye to a coloured formazan, in cell work by metabolically active cells.)
A further experiment concerns BT-549. As to the kind of experiment: Cytotoxicity against human BT549 cells assessed as reduction in cell viability after 24 hrs by MTT assay. In kind it is functional, cell-based. The following applies: BT-549, 24 h.
A further experiment deals with HeLa. As to the kind of experiment: Cytotoxicity against human HeLa cells assessed as reduction in cell viability after 24 hrs by MTT assay. Format: functional, cell-based.
Experiment [1] in a line: Inhibition of glutathione S-transferase (unknown origin). Set-up: species or system Homo sapiens.
A further experiment concerns SK-MEL-2. As to the kind of experiment: Cytotoxicity against human SK-MEL-2 cells by SRB assay. In kind it is functional, cell-based.
A further experiment relates to KB. As to the kind of experiment: Cytotoxicity against human KB cells by SRB assay. In kind it is functional, cell-based. In general terms: The SRB assay estimates cell density from bound dye.
A further experiment deals with Lu1. As to the kind of experiment: Cytotoxicity against human Lu1 cells by SRB assay. Format: functional, cell-based.

With `COc1ccc2c(c1)OCC(Cc1ccc(OC)c(O)c1)C2=O` (stereo not given), the IC50 in the experiment with Vero is above 200 µM; in the experiment with BT-549, 30.6 µM; in the experiment with HeLa it was 50.1 µM.

In experiment [1], `COc1ccc2c(c1)C(=O)[C@@H](Cc1cc(O)cc(O)c1O)CO2` had a half-inhibitory concentration (IC50) of 17.1 µM.

On to `O=C1c2ccccc2OCC1Cc1ccc(O)cc1` (stereo not given), for which the IC50 was above 200 µM in the experiment on Vero, 20.1 µM in the experiment with BT-549 and 42.8 µM in the experiment on HeLa.

Consider `O=C1c2ccccc2OCC1Cc1ccc(F)cc1` (stereo not given), for which the half-inhibitory concentration (IC50) in the experiment on Vero, in the experiment with BT-549 and with HeLa was above 200 µM throughout.

In the case of `COc1ccc(C[C@@H]2COc3cc(OC)c(C)c(O)c3C2=O)c(O)c1`, the IC50 in the experiment on SK-MEL-2, with KB and with Lu1 was 0.51 to 0.66 µM throughout.

Turning to `COc1ccc2c(c1)OCC(Cc1ccc(O)cc1)C2=O` (stereo not given), the figures for the IC50 in the experiment with Vero, in the experiment on BT-549 and in the experiment on HeLa were above 200 µM, 24.3 µM and 50.4 µM, respectively.

As to `COc1ccc(CC2COc3cccc(OC)c3C2=O)cc1O` (stereo not given), the concentration for half-maximal inhibition (IC50) in the experiment with Vero, with BT-549 and with HeLa was above 200 µM each time.

Consider `COc1ccc(CC2COc3ccccc3C2=O)c(OC)c1` (stereo not given), for which the 50% inhibitory concentration (IC50) with Vero is above 200 µM; with BT-549 it was 61.9 µM; with HeLa, 38.3 µM.

For `Cc1ccc(CC2COc3ccccc3C2=O)cc1` (stereo not given), the IC50 in the experiment with Vero is above 200 µM; in the experiment on BT-549 it was 42.2 µM; in the experiment on HeLa, 48.9 µM.

Regarding `O=C1c2ccccc2OCC1Cc1ccc(Cl)cc1` (stereo not given), the figures for the IC50 in the experiment on Vero, in the experiment on BT-549 and in the experiment with HeLa were above 200 µM, 69.3 µM and 61.9 µM, respectively.

Regarding `COc1ccc(CC2COc3ccccc3C2=O)cc1O` (stereo not given), the IC50 is above 200 µM in the experiment on Vero, above 100 µM in the experiment on BT-549 and 20.4 µM in the experiment on HeLa.

As for `COc1ccc(CC2COc3ccccc3C2=O)cc1` (stereo not given), the figures for the 50% inhibitory concentration (IC50) in the experiment on Vero, in the experiment on BT-549 and in the experiment with HeLa were above 200 µM, above 100 µM and above 100 µM, respectively.

`O=C1c2cc(O)ccc2OC[C@@H]1Cc1cc(O)cc(O)c1O` had an IC50 in experiment [1] of 16.5 µM.

As to `COc1ccc(CC2COc3cc(C)ccc3C2=O)cc1` (stereo not given), the IC50 in the experiment on Vero is above 200 µM; in the experiment on BT-549 it was 42.1 µM; with HeLa, 68.3 µM.

In the case of `COc1ccc(CC2COc3ccc(C)cc3C2=O)cc1` (stereo not given), the half-inhibitory concentration (IC50) in the experiment with Vero is above 200 µM; with BT-549, above 100 µM; with HeLa, 76.3 µM.

As for `COc1ccc(CC2COc3ccccc3C2=O)cc1OC` (stereo not given), the IC50 in the experiment with Vero is above 200 µM; with BT-549, above 100 µM; with HeLa it was above 100 µM.

In the case of `Cc1ccc2c(c1)OCC(Cc1ccc(O)cc1)C2=O` (stereo not given), the half-maximal inhibitory concentration (IC50) is above 200 µM with Vero, 28.7 µM with BT-549 and 43 µM in the experiment with HeLa.

On to `COc1ccc(CC2COc3ccccc3C2=O)c(OC)c1OC` (stereo not given), for which the half-inhibitory concentration (IC50) with Vero is above 200 µM; in the experiment on BT-549, above 100 µM; in the experiment on HeLa, above 100 µM.
